According to PubChem BioAssay (NCI):
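Each compound was tested at five concentrations against cells in 96-well plates for 48 hours. The concentration for full growth arrest is given as TGI.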 Where a SMILES comes first, the peptide text is derived from it. [ ]: non-standard residue; d: D form. The star is where a group is joined. ξ: configuration not given here. dThr(3ξ) = CC(O)[C@@H](N)C(=O)O; dNMeL = CN[C@H](CC(C)C)C(=O)O; OBn = c1ccc(CO*)cc1; ξLac = CC(O)C(=O)O

Columns and labels:
Test in all cases: NCI anticancer screen, dose series, 48 h
[1] = tested on: SK-MEL-2 melanoma
[2] = tested on: SF-539 CNS
[3] = tested on: DMS 273 small cell lung
[4] = tested on: SK-MEL-28 melanoma
[5] = tested on: K-562 leukemia
[6] = tested on: IGROV1 ovarian
[7] = tested on: SN12C renal
[8] = tested on: LOX IMVI melanoma
[9] = tested on: KM12 colon
[10] = tested on: HL-60(TB) leukemia
[11] = tested on: MOLT-4 leukemia
[12] = tested on: SR leukemia
[13] = tested on: HT29 colon
[14] = tested on: A498 renal
[15] = tested on: UACC-257 melanoma
[16] = tested on: MDA-N
[17] = tested on: MDA-MB-231 breast
[18] = tested on: NCI/ADR-RES ovarian
[19] = tested on: HS 578T breast
[20] = tested on: MCF7 breast

SMILES	TGI [1] [µM]	TGI [2] [µM]	TGI [3] [µM]	TGI [4] [µM]	TGI [5] [µM]	TGI [6] [µM]	TGI [7] [µM]	TGI [8] [µM]	TGI [9] [µM]	TGI [10] [µM]	TGI [11] [µM]	TGI [12] [µM]	TGI [13] [µM]	TGI [14] [µM]	TGI [15] [µM]	TGI [16] [µM]	TGI [17] [µM]	TGI [18] [µM]	TGI [19] [µM]	TGI [20] [µM]
C=CCNC(=S)N1c2ccccc2NC(=O)CC1C (configuration not stated)	> 100	> 100	> 100	> 100	> 100	> 100	> 100	> 100	> 100	> 100	> 100	> 100	> 100	–	–	–	–	–	–	–
C=C[C@]1(C)CCC2=C(CCC3C2(C)CCC[C@]3(C)CO)C1 (some centres not stated)	> 100	> 100	> 100	> 100	> 100	> 100	43.6	68	> 100	52.2	84.9	> 100	48	> 100	> 100	–	–	–	–	–
COc1ccc(CNC2=C(NC(C)=O)C(=O)c3ccccc3C2=O)cc1	19.2	21.9	> 50	> 50	26.4	> 50	> 50	18.7	> 50	7.45	17.7	> 50	> 50	–	21.7	–	–	–	–	–
CCOc1ccccc1N=Nc1c(-c2ccccc2)nn(C(=O)CC(=O)Nc2cccc(Cl)c2)c1-c1ccccc1	> 100	> 100	> 100	> 100	> 100	> 100	> 100	> 100	> 100	> 100	> 100	> 100	> 100	–	> 100	–	–	–	–	–
CCOC(=O)C(Cc1ccccc1)NC(=O)c1ccc(N=NN(C)C)cc1 (configuration not stated)	> 100	> 100	> 100	> 100	> 100	> 100	> 100	> 100	> 100	> 100	> 100	> 100	> 100	> 100	> 100	–	–	–	–	–
CC(=O)CCNc1ccc(-c2cc(-c3ccc(N(C)C)cc3)nc3ccc4ccccc4c23)cc1	> 100	> 100	–	> 100	> 100	> 100	> 100	> 100	> 100	84.4	> 100	> 100	> 100	> 100	> 100	> 100	> 100	> 100	> 100	> 100
COC1C=CC(C(=O)[N+]2=Cc3[nH]c4ccccc4c3CC2)O1 (configuration not stated)	> 100	> 100	> 100	> 100	> 100	> 100	> 100	> 100	> 100	> 100	> 100	82.7	> 100	> 100	> 100	–	–	–	–	–
O=C(O)C(Cc1c[nH]c2ccccc12)N=Cc1nc(-c2ccccc2)oc1O (configuration not stated)	> 100	> 100	> 100	> 100	> 100	> 100	> 100	> 100	–	> 100	> 100	> 100	> 100	> 100	> 100	–	–	–	–	–
NS(=O)(=O)c1ccc(NNc2c3ccccc3nc3ccccc23)cc1	18.1	17.2	–	17.1	19.9	19.1	23.1	14.5	16.5	19.9	19.2	21.4	13.6	53.9	18	17.5	25.9	24.5	23.8	15.8
N#Cc1c(-c2ccccc2)c(N=Nc2ccc(F)cc2)c(=O)n2c1[nH]c1ccccc12	> 100	32.2	–	> 100	17.9	35.7	10.2	> 100	65	3.68	7.78	55.8	12	41	> 100	52.9	> 50.9	20.6	31.4	> 100
CCCN1CN(C(C(=O)N[C@@H]2C(=O)N3C2SC(C)(C)C3C(=O)O)c2ccccc2)CSC1=S (some centres not stated)	> 100	> 100	> 100	> 100	> 100	> 100	> 100	> 100	> 100	> 100	> 100	–	> 100	> 100	> 100	–	–	–	–	–
O=S(=O)(N=S(c1ccc(Cl)cc1)c1ccc(Cl)cc1)c1ccccc1	> 100	> 100	–	> 100	> 100	> 100	> 100	> 100	> 100	> 100	> 100	> 100	> 100	> 100	> 100	> 100	> 100	> 100	> 100	> 100
O=c1c2cc([N+](=O)[O-])ccc2n(Cc2ccccc2)n1Cc1ccccc1	20.2	> 31.6	–	> 31.6	> 31.6	> 31.6	> 31.6	> 31.6	22.2	22.7	> 31.6	> 31.6	> 31.6	> 31.6	19.8	21.2	29.1	20.3	> 31.6	28.6
O=C1OCC2(CO1)CC1C=CC2C1 (configuration not stated)	> 100	> 100	–	> 100	> 100	> 100	> 100	> 100	> 100	> 100	> 100	> 100	> 100	> 100	> 100	> 100	> 100	> 100	> 100	> 100
Oc1c2cc(Br)cc1CCc1cc(Br)cc(c1O)CC2	52.9	58.6	–	> 100	> 100	> 100	> 100	31.3	37.5	51.6	> 100	> 100	35.9	73.8	55.6	> 100	41.4	57.2	73.4	46.2
O=C(NCc1ccccc1)c1cc2cc(O)c(O)cc2cn1	97.6	> 100	23.2	> 100	> 100	73.2	> 100	66.4	> 100	48.6	–	> 100	70.4	> 100	73.1	–	–	–	–	–
OCC1OC(Oc2cc(O)cc(/C=C\c3ccc(O)cc3)c2)C(O)C(O)C1O (configuration not stated)	> 100	> 100	–	> 100	> 100	> 100	> 100	> 100	> 100	> 100	> 100	> 100	> 100	> 100	> 100	> 100	> 100	> 100	> 100	> 100
Nc1cc2c3c(cccc3c1)C(=O)N(c1ccc(OCCN3CCCCC3)cc1)C2=O	31.6	27.9	–	44.8	29.8	34.4	> 54.3	35.4	41.3	26.5	35.7	36.6	31.9	31.9	31.6	41.2	31.5	40.9	63.4	36.3
Cn1c(=O)[nH]c2[nH]c3ccccc3c2c1=O	> 100	> 100	–	> 100	> 100	> 100	> 100	> 100	> 100	> 100	> 100	> 100	> 100	> 100	> 100	> 100	> 100	> 100	> 100	> 100
CC(=O)OCCCCn1cnc2nc(Nc3ccccc3)nc(Cl)c21	> 100	> 100	–	> 100	> 100	> 100	> 100	> 100	> 100	> 100	> 100	> 100	> 100	> 100	> 100	> 100	> 100	> 100	> 100	> 100
CC(=O)OC(C)[C@@H](NC(=O)[C@@H](CC(C)C)N(C)C(=O)[C@@H]1CCCN1C(=O)C(C)O)C(=O)OCc1ccccc1 (some centres not stated) (H-[ξLac]P[dNMeL][dThr(3ξ)](Ac)-OBn)	> 100	> 100	–	> 100	> 100	> 100	> 100	> 100	> 100	> 100	> 100	> 100	> 100	> 100	> 100	> 100	> 100	> 100	> 100	> 100
CC1=NN(C(=O)CC(=O)Nc2ccccc2Cl)C(=O)C1N=Nc1ccc(C(=O)O)cc1 (configuration not stated)	> 100	> 100	–	> 100	> 100	> 100	> 100	> 100	> 100	> 100	> 100	> 100	> 100	> 100	> 100	> 100	> 100	> 100	> 100	> 100
COC(=O)N/N=C(/CCN1CCCC1)CC(c1ccccc1)c1c(O)c2ccccc2oc1=O (configuration not stated)	> 100	> 100	> 100	> 100	> 100	> 100	> 100	> 100	> 100	> 100	> 100	> 100	> 100	> 100	> 100	–	–	–	–	–
COc1ccc(NC(=O)C(=O)C2CNC(=O)NC2=O)c(OC)c1 (configuration not stated)	> 100	> 100	> 100	> 100	> 100	> 100	> 100	> 100	> 100	> 100	> 100	> 100	> 100	–	> 100	–	–	–	–	–
CC(C)[Si](OC1=C(C(=O)Nc2ccccc2Cl)CCCCC1)(C(C)C)C(C)C	> 100	> 100	–	> 100	> 100	> 100	> 100	> 100	> 100	13.4	> 100	> 100	> 100	> 100	> 100	> 100	> 100	> 100	> 100	> 100
CC1(C)CC[C@]2(C(=O)O)CC[C@]3(C)C(=CC[C@@H]4[C@@]5(C)C[C@H](O)[C@H](O)[C@@](C)(CO)C5=CC[C@]43C)[C@@H]2C1	> 100	> 100	–	> 100	> 100	> 100	> 100	> 100	> 100	> 100	> 100	> 100	> 100	> 100	> 100	> 100	> 100	> 100	> 100	> 100
